Results published in patent publication US20030050306A1, “Novel heteroaryl derivatives, their preparation and use” (H. Lundbeck A/S, priority 1999, published 2003).

Experiments:
[1] = biological target: T1, cloned human 5-HT1A receptors (Homo sapiens, UniProt P08908); assay: Inhibition of 3H-5-CT binding to human 5-HT1A receptors; conditions: cloned human 5-HT1A receptors in HeLa cells (HA7)
T1 construct: expressed in transfected cells; host or cells: HeLa cells (HA7)
T1 sequence (P08908 1-422): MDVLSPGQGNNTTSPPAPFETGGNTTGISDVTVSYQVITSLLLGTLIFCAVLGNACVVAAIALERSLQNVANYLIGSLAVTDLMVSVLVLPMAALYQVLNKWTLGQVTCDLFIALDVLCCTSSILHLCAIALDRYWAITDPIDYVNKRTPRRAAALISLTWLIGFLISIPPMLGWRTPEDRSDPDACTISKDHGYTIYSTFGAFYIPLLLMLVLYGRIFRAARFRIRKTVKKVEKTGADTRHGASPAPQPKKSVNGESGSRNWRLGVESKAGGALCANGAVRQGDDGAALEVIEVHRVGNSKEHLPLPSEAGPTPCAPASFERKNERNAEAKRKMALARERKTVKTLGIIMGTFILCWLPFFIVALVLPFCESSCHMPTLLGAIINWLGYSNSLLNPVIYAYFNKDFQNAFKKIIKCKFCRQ
Description: The affinity of the compounds of the invention to 5-HT1A receptors was determined by measuring the inhibition of binding of a radioactive ligand at 5-HT1A receptors as described in the following test:
Inhibition of ^3H-5-CT Binding to Human 5-HT1A Receptors
By this method the inhibition by drugs of the binding of the 5-HT1A agonist ^3H-5-carboxamido tryptamine (3H-5-CT) to cloned human 5-HT1A receptors stably expressed in transfected HeLa cells (HA7) (Fargin, A. et al, J. Biol. Chem., 1989, 264, 14848) is determined in vitro. The assay was performed as a modification of the method described by Harrington, M. A. et at, J. Pharmacol. Exp. Ther., 1994, 268, 1098. Human 5-HT1A receptors (40 μg of cell homogenate) were incubated for 15 minutes at 37° C. in 50 mM Tris buffer at pH 7.7 in the presence of ^3H-5-CT. Non-specific binding was determined by including 10 μM of metergoline. The reaction was terminated by rapid filtration through Unifilter GF/B filters on a Tomtec Cell Harvester. Filters were counted in a Packard Top Counter.

[2] = biological target: T2, human cloned dopamine D4.2 receptors (Homo sapiens, UniProt P21917, DEL265-296); assay: Inhibition of the binding of 3H-YM-09151-2 to human dopamine D4 receptors; conditions: human cloned dopamine D4.2 receptors in CHO-cells
T2 construct: expressed in transfected cells; host or cells: CHO cells
T2 sequence (P21917 with tags, fused parts or gaps DEL265-296): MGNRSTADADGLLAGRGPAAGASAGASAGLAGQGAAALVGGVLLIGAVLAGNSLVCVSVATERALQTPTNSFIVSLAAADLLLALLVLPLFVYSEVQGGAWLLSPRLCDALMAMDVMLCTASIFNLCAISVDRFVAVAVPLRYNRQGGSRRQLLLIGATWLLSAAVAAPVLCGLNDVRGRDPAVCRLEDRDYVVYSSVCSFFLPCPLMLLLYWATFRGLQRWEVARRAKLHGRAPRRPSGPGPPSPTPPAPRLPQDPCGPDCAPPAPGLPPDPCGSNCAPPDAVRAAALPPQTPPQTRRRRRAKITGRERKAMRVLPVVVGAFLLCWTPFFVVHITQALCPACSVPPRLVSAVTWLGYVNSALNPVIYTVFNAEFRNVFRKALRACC
Description: The compounds of the invention have also been tested for their affinity to dopamine D4 receptors in the following test.
Inhibition of the Binding of ^3H-YM-09151-2 to Human Dopamine D4 Receptors
By this method the inhibition by drugs of the binding of [^3H]YM-09151-2 (0.06 nM) to membranes of human cloned dopamine D4.2 receptors expressed in CHO-cells is determined in vitro. Method modified from NEN Life Science Products, Inc., technical data certificate PC2533-10/96.

Row | Compound | IC50 [1] [nM] | IC50 [2] [nM]
1 | 1-[2-(Bromo-trifluoromethyl-phenylsulfanyl)-ethyl]-4-(2,3-dihydro-benzo[1,4]dioxin-5-yl)-piperazine [Compound 3c] | 11 | 35
2 | 1-[3-(Bromo-trifluoromethyl-phenylsulfanyl)-propyl]-4-(2,3-dihydro-benzo[1,4]dioxin-5-yl)-piperazine [Compound 5ap] | 6.2 | 6.3
3 | Clc1ccccc1OCCCN1CCN(c2cccc3c2OCCO3)CC1 [Compound 1a, 1-[3-(2-Chloro-phenoxy)-propyl]-4-(2,3-dihydro-benzo[1,4]dioxin-5-yl)-piperazine] | 10 | 1.1
4 | Clc1cccc(Cl)c1OCCCN1CCN(c2cccc3c2OCCO3)CC1 [Compound 1b, 1-[3-(2,6-Dichloro-phenoxy)-propyl]-4-(2,3-dihydro-benzo[1,4]dioxin-5-yl)-piperazine] | 1.1 | 5.9
5 | Fc1cc(F)c(OCCCN2CCN(c3cccc4c3OCCO4)CC2)c(F)c1 [Compound 1c, 1-(2,3-Dihydro-benzo[1,4]dioxin-5-yl)-4-[3-(2,4,6-trifluoro-phenoxy)-propyl]-piperazine] | 2 | 13
6 | COc1cc(F)ccc1OCCCN1CCN(c2cccc3c2OCCO3)CC1 [Compound 1d, 1-(2,3-Dihydro-benzo[1,4]dioxin-5-yl)-4-[3-(4-fluoro-2-methoxy-phenoxy)-propyl]-piperazine] | 5.3 | 3
7 | Cc1cc(F)ccc1OCCCN1CCN(c2cccc3c2OCCO3)CC1 [Compound 1e, 1-(2,3-Dihydro-benzo[1,4]dioxin-5-yl)-4-[3-(4-fluoro-2-methyl-phenoxy)-propyl]-piperazine] | 4.5 | 1.3
8 | Clc1ccc(OCCCN2CCN(c3cccc4c3OCCO4)CC2)cc1 [Compound 2a, 1-[3-(4-Chloro-phenoxy)-propyl]-4-(2,3-dihydro-benzo[1,4]dioxin-5-yl)-piperazine] | 4.4 | 4
9 | FC(F)(F)c1ccc(OCCCN2CCN(c3cccc4c3OCCO4)CC2)cc1 [Compound 2b, 1-(2,3-Dihydro-benzo[1,4]dioxin-5-yl)-4-[3-(4-trifluoromethyl-phenoxy)-propyl]-piperazine] | 15 | 12
10 | Fc1ccccc1OCCCN1CCN(c2cccc3c2OCCO3)CC1 [Compound 2c, 1-(2,3-Dihydro-benzo[1,4]dioxin-5-yl)-4-[3-(2-fluoro-phenoxy)-propyl]-piperazine] | 4 | 1.2
11 | N#Cc1ccccc1OCCCN1CCN(c2cccc3c2OCCO3)CC1 [Compound 2d, 2-{3-[4-(2,3-Dihydro-benzo[1,4]dioxin-5-yl)-piperazin-1-yl]-propoxy}-benzonitrile] | 15 | 1.7
12 | Fc1ccc(SCCCN2CCN(c3cccc4ccsc34)CC2)c(Cl)c1 [Compound 2e, 1-Benzo[b]thiophen-7-yl-4-[3-(2-chloro-4-fluoro-phenylsulfanyl)-propyl]-piperazine] |  | 5.4
13 | Clc1ccc(SCCN2CCN(c3cccc4c3OCCO4)CC2)cc1Cl [Compound 3a, 1-[2-(3,4-Dichloro-phenylsulfanyl)-ethyl]-4-(2,3-dihydro-benzof[, 4]dioxin-5-yl)-piperazine] | 76 | 5.4
14 | Fc1ccc(SCCN2CCN(c3cccc4c3OCCO4)CC2)cc1 [Compound 3b, 1-(2,3-Dihydro-benzo[1,4]dioxin-5-yl)-4-[2-(4-fluoro-phenylsulfanyl)-ethyl]-piperazine] | 97 | 4.3
15 | Clc1cccc(Cl)c1SCCN1CCN(c2cccc3c2OCCO3)CC1 [Compound 3d, 1-[2-(2,6-Dichloro-phenylsulfanyl)-ethyl]-4-(2,3-dihydro-benzo[1,4]dioxin-5-yl)-piperazine] | 31 | 11
16 | c1ccc(SCCCN2CCN(c3cccc4c3OCCO4)CC2)cc1 [Compound 4a, 1-(2,3-Dihydro-benzo[1,4]dioxin-5-yl)-4-(3-phenylsulfanyl-propyl)-piperazine] | 2.8 | 1.3
17 | Fc1ccc(OCCCN2CCN(c3cccc4c3OCCO4)CC2)c(Br)c1 [Compound 5aa, 1-[3-(2-Bromo-4-fluoro-phenoxy)-propyl]-4-(2,3-dihydro-benzo[1,4]dioxin-5-yl)-piperazine] | 4.9 | 0.53
18 | Clc1cccc(Cl)c1SCCCCN1CCN(c2cccc3c2OCCO3)CC1 [Compound 5ab, 1-[4-(2,6-Dichloro-phenylsulfanyl)-butyl]-4-(2,3-dihydro-benzo[1,4]dioxin-5-yl)-piperazine] | 1.9 | 2.1
19 | Fc1ccc(SCCCN2CCN(c3cccc4c3OCCO4)CC2)c(Cl)c1 [Compound 5ac, 1-[3-(2-Chloro-4-fluoro-phenylsulfanyl)-propyl]-4-(2,3-dihydro-benzo[1,4]dioxin-5-yl)-piperazine] | 2.4 | 1.4
20 | Fc1ccc(SCCCN2CCN(c3cccc4ccsc34)CC2)c(Cl)c1 [Compound 5ad, 1-Benzo[b]thiophen-7-yl-4-[3-(2-chloro-4-fluoro-phenylsulfanyl)-propyl]-piperazine] |  | 6.6
21 | COc1c(Cl)cccc1SCCCCN1CCN(c2cccc3c2OCCO3)CC1 [Compound 5ag, 1-[4-(3-Chloro-2-methoxy-phenylsulfanyl)-butyl]-4-(2,3-dihydro-henzo[1,4]dioxin-5-yl)-piperazine] | 7.4 | 3.1
22 | Fc1ccc(SCCCN2CCN(c3cccc4ccsc34)CC2)c(Cl)c1 [Compound 5ai, 1-Benzo[b]thiophen-7-yl-4-[3-(2-chloro-4-fluoro-phenylsulfanyl)-propyl]-piperazine] |  | 2.9
23 | Fc1cc(Br)c(OCCCN2CCN(c3cccc4c3OCCO4)CC2)c(Br)c1 [Compound 5aj, 1-[3-(2,6-Dibromo-4-fluoro-phenoxy)-propyl]-4-(2,3-dihydro-benzo[1,4]dioxin-5-yl)-piperazine] | 3.4 | 13
24 | CS(=O)(=O)c1cc(Cl)c(OCCCN2CCN(c3cccc4ccsc34)CC2)c(Cl)c1 [Compound 5ao, 1-Benzo[b]thiophen-7-yl-4-[3-(2,6-dichloro-4-methanesulfonyl-phenoxy)-propyl]-piperazine] | 3.8 | 68
25 | Fc1cc(Cl)c(OCCCN2CCN(c3cccc4c3OCCO4)CC2)c(Cl)c1 [Compound 5at, 1-[3-(2,6-Dichloro-4-fluoro-phenoxy)-propyl]-4-(2,3-dihydro-benzo[1,4]dioxin-5-yl)-piperazine] | 2.2 | 3.4
26 | Fc1cc(Cl)c(OCCCN2CCN(c3cccc4ccsc34)CC2)c(Cl)c1 [Compound 5au, 1-Benzo[b]thiophen-7-yl-4-[3-(2,6-dichloro-4-fluoro-phenoxy)-propyl]-piperazine] | 6.4 | 7.6
27 | Cc1cccc(Cl)c1SCCCCN1CCN(c2cccc3c2OCCO3)CC1 [Compound 5av, 1-[4-(2-Chloro-6-methyl-phenylsulfanyl)-butyl]-4-(2,3-dihydro-benzo[1,4]dioxin-5-yl)-piperazine] | 5.1 | 1.4
28 | Clc1cccc(Cl)c1SCCCN1CCN(c2cccc3c2OCCO3)CC1 [Compound 5aw, 1-[3-(2,6-Dichloro-phenylsulfanyl)-propyl]-4-(2,3-dihydro-benzo[1,4]dioxin-5-yl)-piperazine] | 1.7 | 1.9
